Measured values from US20230265151A1, “GIP/GLP1 CO-AGONIST COMPOUNDS” (priority 2020, published 2023).
Where two headings read alike, the source gives them in different places. *1 amine or outer side, *2 acyl side, *3 side chain or, on linkers, in order; H or OH if unused. Where a SMILES comes first, the peptide text is derived from it. Side-chain parts run from the residue outwards. [ ]: non-standard residue; d: D form. The star is where a group is joined. αMePhe(2-F) = C[C@](N)(Cc1ccccc1F)C(=O)O; γGlu = O=C(O)[C@H](CCC(=O)[*:2])N[*:1]; C14 diacid = O=C(O)CCCCCCCCCCCCC(=O)*; αMeF = C[C@](N)(Cc1ccccc1)C(=O)O; 4Pal = N[C@@H](Cc1ccncc1)C(=O)O; αMeL = CC(C)C[C@](C)(N)C(=O)O; Orn = NCCC[C@H](N)C(=O)O; AEEA = NCCOCCOCC(=O)O; Aib = CC(C)(N)C(=O)O

How the values were obtained:
Format in all cases: cell-based
[1] = biological target: T1, hGCGR (Homo sapiens, UniProt P47871); experiment: Functional cAMP formation (HTRF) in HEK-293 clonal cells expressing hGCGR, 0.1% bovine casein, without or with 1.0% human serum albumin; conditions: cAMP
T1 construct: expressed in transfected cells
T1 sequence (P47871 26-477): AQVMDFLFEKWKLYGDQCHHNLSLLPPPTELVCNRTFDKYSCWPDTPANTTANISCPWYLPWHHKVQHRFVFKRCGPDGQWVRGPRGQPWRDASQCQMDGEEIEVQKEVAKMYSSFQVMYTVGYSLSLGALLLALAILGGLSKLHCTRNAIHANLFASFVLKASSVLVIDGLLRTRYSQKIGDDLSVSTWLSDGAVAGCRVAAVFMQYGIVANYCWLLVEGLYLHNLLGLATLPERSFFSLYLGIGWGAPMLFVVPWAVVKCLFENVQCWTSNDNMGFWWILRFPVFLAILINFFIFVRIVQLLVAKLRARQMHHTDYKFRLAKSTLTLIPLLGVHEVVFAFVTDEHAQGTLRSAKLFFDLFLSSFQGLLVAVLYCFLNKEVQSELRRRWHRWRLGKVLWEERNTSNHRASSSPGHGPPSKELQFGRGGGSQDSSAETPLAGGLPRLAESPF
How it was run: (§1)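 Cells were stimulated with peptide for 30 min at 37° C, then intracellular cAMP was measured by competitive HTRF (665/620 nm ratio) and converted to nM using a cAMP standard curve. Relative EC50 and Emax came from four-parameter logistic fits of percent maximal response against peptide concentration.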

[2] = biological target: hGLP-1R (Homo sapiens, UniProt P43220); experiment: Functional cAMP formation (HTRF) in HEK-293 clonal cells expressing hGLP-1R, 0.1% bovine casein, without or with 1.0% human serum albumin; parameters: expressed in transfected cells
hGLP-1R, sequence (P43220 24-463): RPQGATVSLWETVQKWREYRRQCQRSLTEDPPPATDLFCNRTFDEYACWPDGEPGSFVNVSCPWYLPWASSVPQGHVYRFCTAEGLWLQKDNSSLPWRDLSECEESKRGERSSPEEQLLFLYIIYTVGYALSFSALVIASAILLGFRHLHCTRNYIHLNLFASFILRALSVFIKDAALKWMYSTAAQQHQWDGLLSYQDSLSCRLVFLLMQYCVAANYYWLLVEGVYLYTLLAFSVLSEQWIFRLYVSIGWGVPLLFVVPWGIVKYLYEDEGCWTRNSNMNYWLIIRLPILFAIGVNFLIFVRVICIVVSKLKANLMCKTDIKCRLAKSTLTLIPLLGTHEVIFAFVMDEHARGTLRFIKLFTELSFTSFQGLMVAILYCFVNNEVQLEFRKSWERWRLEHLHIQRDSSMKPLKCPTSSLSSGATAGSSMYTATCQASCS
How it was run: as §1

[3] = biological target: T2, hGIPR (Homo sapiens, UniProt P48546); experiment: Functional cAMP formation (HTRF) in HEK-293 clonal cells expressing hGIPR, 0.1% bovine casein, without or with 1.0% human serum albumin; conditions: for Emax: arithmetic mean; for EC50: cAMP, 0.1% bovine casein (no human serum albumin), geometric mean
T2 construct: expressed in transfected cells
T2 sequence (P48546 22-466): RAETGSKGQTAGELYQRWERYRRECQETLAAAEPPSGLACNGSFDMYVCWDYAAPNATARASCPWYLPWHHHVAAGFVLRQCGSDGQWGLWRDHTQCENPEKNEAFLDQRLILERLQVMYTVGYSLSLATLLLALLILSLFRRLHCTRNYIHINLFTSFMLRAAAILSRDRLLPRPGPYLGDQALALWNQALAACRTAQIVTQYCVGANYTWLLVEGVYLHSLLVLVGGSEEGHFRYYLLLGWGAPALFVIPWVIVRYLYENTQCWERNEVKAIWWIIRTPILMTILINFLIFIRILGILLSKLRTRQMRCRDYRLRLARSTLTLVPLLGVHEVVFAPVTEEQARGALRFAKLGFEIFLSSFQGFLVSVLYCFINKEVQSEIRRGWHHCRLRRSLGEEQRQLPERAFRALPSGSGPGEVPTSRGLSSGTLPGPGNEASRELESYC
How it was run: as §1

Structure (SMILES)	EC50 ([1]; hGCGR EC50, nM (SEM, n), 37° C., 0.1% bovine casein (no human serum albumin), geometric mean) [nM]	EC50 ([1]; hGCGR EC50, nM (SEM, n), 37° C., 0.1% bovine casein and 1.0% human serum albumin, geometric mean (SEM, n)) [nM]	Emax ([2]; HEK293, read-out: hGLP-1R Emax, % ± SEM, cAMP, 37° C., 0.1% bovine casein and 1.0% human serum albumin, percent of maximal response to GLP-1(7-36)NH2) [%]	EC50 ([2]; hGLP-1R EC50, nM (SEM, n), cAMP, 37° C., 0.1% bovine casein (no human serum albumin), geometric mean) [nM]	Emax ([3]; HEK293, read-out: hGIPR Emax, % ± SEM, cAMP, 37° C., 0.1% bovine casein, percent of maximal response to GIP(1-42)NH2) [%]	EC50 ([3]; hGIPR EC50, nM (SEM, n), 37° C.) [nM]	EC50 ([1]; incubated at 37° C., 0.1% bovine casein (no human serum albumin), geometric mean, read-out: hGCGR EC50, nM (SEM, n)) [nM]	Emax ([2]; HEK293, percent of maximal response to GLP-1(7-36)NH2, 37° C., 0.1% bovine casein, arithmetic mean, read-out: hGLP-1R Emax, % ± SEM) [%]	Emax ([3]; HEK293, percent of maximal response to GIP(1-42)NH2, 37° C., 0.1% bovine casein, read-out: hGIPR Emax, % ± SEM) [%]	EC50 ([3]; incubated at 37° C., read-out: hGIPR EC50, nM (SEM, n)) [nM]
CC[C@H](C)[C@H](NC(=O)[C@H](CCCN)NC(=O)[C@H](CC(=O)O)NC(=O)[C@H](CC(C)C)NC(=O)[C@](C)(CC(C)C)NC(=O)[C@@H](NC(=O)C(C)(C)NC(=O)[C@@H](NC(=O)[C@H](CC(=O)O)NC(=O)[C@H](CO)NC(=O)[C@@H](NC(=O)[C@](C)(Cc1ccccc1F)NC(=O)[C@@H](NC(=O)CNC(=O)[C@H](CCC(=O)O)NC(=O)C(C)(C)NC(=O)[C@@H](N)Cc1ccc(O)cc1)[C@@H](C)O)[C@@H](C)O)C(C)C)[C@@H](C)CC)C(=O)N[C@@H](C)C(=O)N[C@@H](CCC(N)=O)C(=O)NC(C)(C)C(=O)N[C@@H](CCCCNC(=O)COCCOCCNC(=O)COCCOCCNC(=O)CC[C@H](NC(=O)CCCCCCCCCOc1ccc(C(=O)O)cc1)C(=O)O)C(=O)N[C@@H](Cc1ccccc1)C(=O)N[C@H](C(=O)N[C@H](CCC(=O)O)C(=O)N[C@@](C)(Cc1ccc(O)cc1)C(=O)N[C@@H](CC(C)C)C(=O)N[C@H](C(=O)N[C@@H](CCCCNC(=O)COCCOCCNC(=O)COCCOCCNC(=O)CC[C@H](NC(=O)CCCCCCCCCOc1ccc(C(=O)O)cc1)C(=O)O)C(=O)NCC(=O)NCC(=O)N1CCC[C@H]1C(=O)N[C@@H](CO)C(=O)N[C@@H](CO)C(=O)NCC(=O)N[C@@H](C)C(=O)N1CCC[C@H]1C(=O)N1CCC[C@H]1C(=O)N1CCC[C@H]1C(=O)N[C@@H](CO)C(N)=O)[C@@H](C)CC)[C@@H](C)CC [Example 330]	> 9950	> 9950	85	0.477	112	0.0185				
CC[C@H](C)[C@H](NC(=O)[C@H](CC(C)C)NC(=O)[C@](C)(Cc1ccccc1)NC(=O)[C@H](CCC(=O)O)NC(=O)[C@@H](NC(=O)[C@H](Cc1ccccc1)NC(=O)[C@H](CCC(=O)O)NC(=O)C(C)(C)NC(=O)[C@H](CCC(N)=O)NC(=O)[C@H](C)NC(=O)[C@H](CCCCNC(=O)COCCOCCNC(=O)COCCOCCNC(=O)CC[C@H](NC(=O)CCCCCCCCCCCCC(=O)O)C(=O)O)NC(=O)[C@H](CCCN)NC(=O)[C@H](CC(=O)O)NC(=O)[C@H](CC(C)C)NC(=O)[C@](C)(CC(C)C)NC(=O)[C@@H](NC(=O)[C@H](CO)NC(=O)[C@H](Cc1ccncc1)NC(=O)[C@H](CC(=O)O)NC(=O)[C@H](CO)NC(=O)[C@@H](NC(=O)[C@](C)(Cc1ccccc1F)NC(=O)[C@@H](NC(=O)CNC(=O)[C@H](CCC(=O)O)NC(=O)C(C)(C)NC(=O)[C@@H](N)Cc1ccc(O)cc1)[C@@H](C)O)[C@@H](C)O)[C@@H](C)CC)[C@@H](C)CC)C(=O)N[C@@H](CCC(=O)O)C(=O)NCC(=O)NCC(=O)N[C@@H](CCCCNC(=O)COCCOCCNC(=O)COCCOCCNC(=O)CC[C@H](NC(=O)CCCCCCCCCCCCC(=O)O)C(=O)O)C(=O)N[C@@H](CO)C(=O)N[C@@H](CO)C(=O)NCC(=O)N[C@@H](C)C(=O)N1CCC[C@H]1C(=O)N1CCC[C@H]1C(=O)N1CCC[C@H]1C(=O)N[C@@H](CO)C(N)=O [Example 159] (H-Y[Aib]EGT[αMePhe(2-F)]TSD[4Pal]SI[αMeL]LD[Orn]K([AEEA-AEEA-γGlu-C14 diacid])AQ[Aib]EFIE[αMeF]LIEGGK([AEEA-AEEA-γGlu-C14 diacid])SSGAPPPS-NH2)							> 9950	89.4	95.3	0.0198
